Experimental data as given in paper PMC7588595, “Small-molecule active pharmaceutical ingredients of approved cancer therapeutics inhibit human aspartate/asparagine-β-hydroxylase” (Bioorganic & Medicinal Chemistry, 2020).
Where a name gives a salt, the structure may show the parent alone. Read-outs that look alike come from different tables or passages of the source.

Target: T1, human AspH (His6-AspH315–758) (Homo sapiens, UniProt Q12797)
T1 construct: N-Terminally His6-tagged human AspH315–758 (His6-AspH315–758) was produced in Escherichia coli BL21 (DE3) cells; made in house; host or cells: Escherichia coli BL21 (DE3), pET-28a(+) vector
T1 sequence (Q12797 315-758): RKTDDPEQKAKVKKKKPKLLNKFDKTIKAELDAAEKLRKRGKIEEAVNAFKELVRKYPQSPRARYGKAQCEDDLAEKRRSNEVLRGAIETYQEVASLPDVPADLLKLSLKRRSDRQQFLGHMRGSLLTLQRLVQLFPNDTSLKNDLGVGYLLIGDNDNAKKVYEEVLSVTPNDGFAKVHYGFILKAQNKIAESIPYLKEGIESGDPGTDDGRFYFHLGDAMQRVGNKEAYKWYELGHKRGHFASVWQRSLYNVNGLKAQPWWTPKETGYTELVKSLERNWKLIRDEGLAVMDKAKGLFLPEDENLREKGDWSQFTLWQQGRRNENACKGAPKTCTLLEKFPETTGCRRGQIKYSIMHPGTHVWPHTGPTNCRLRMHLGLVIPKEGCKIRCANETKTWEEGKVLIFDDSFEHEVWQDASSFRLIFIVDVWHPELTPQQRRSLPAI
Assay: SPE-MS AspH inhibition assay (hFX-CP101-119 substrate hydroxylation)
Format: biochemical

[1] = 50 nM His6-AspH315–758, 1 μM hFX-CP101–119, 100 μM LAA, 3 μM 2OG, 2 μM FAS, 50 mM HEPES pH 7.5, 20 °C, read-out: IC50
[2] = 20 μM fixed inhibitor, 50 nM His6-AspH315–758, 1 μM hFX-CP101–119, 100 μM LAA, 3 μM 2OG, 2 μM FAS, 50 mM HEPES pH 7.5, 20 °C, relative to DMSO and 2,4-PDCA controls
[3] = AspH-inhibitor screening, 384-well Plate 1
[4] = AspH-inhibitor screening, 384-well Plate 1, substrate conversion
[5] = AspH-inhibitor screening, Plate 1-duplicate
[6] = AspH-inhibitor screening, Plate 1-duplicate, substrate conversion
[7] = read-out: IC50 at 10 μM substrate, 10 μM hFX-CP101–119 and 10 μM 2OG instead of 1 μM hFX-CP101–119 and 3 μM 2OG
[8] = read-out: IC50 at 20 μM Fe(II), 20 μM Fe(II) instead of 2 μM Fe(II)
[9] = read-out: IC50 at 200 μM 2OG, 200 μM 2OG instead of 3 μM 2OG

| Compound | Plate 1 (% inhibition) [3] [%] | Plate 1 (% conversion) [4] [%] | Plate 1-duplicate (% inhibition) [5] [%] | Plate 1-duplicate (% conversion) [6] [%] | also measured |
| --- | --- | --- | --- | --- | --- |
| O=C(CCCCCCC(=O)Nc1ccc([C@H]2O[C@@H](CSc3nc(-c4ccccc4)c(-c4ccccc4)o3)C[C@@H](c3ccc(CO)cc3)O2)cc1)NO [Tubacin, reference compound] | 92.77 | 6.91 | 87.89 | 8.45 | IC50 [1]: 4.12 ± 0.5 µM; AspH inhibition at 20 μM [2]: 90.3 ± 3.5%; inhibition at 20 µM [2]: > 90%; IC50 [7]: 3.57 ± 0.1 µM; IC50 [8]: 4.91 ± 1.63 µM; IC50 [9]: 5.69 ± 0.7 µM |
| CN1CCc2c(c3ccccc3n2Cc2ccc(C(=O)NO)cc2)C1.Cl [Tubastatin A HCl] | -13.29 | 55.89 | -15.22 | 59.59 |  |
| CN[C@@H]1C[C@H]2O[C@@](C)([C@@H]1OC)n1c3ccccc3c3c4c(c5c6ccccc6n2c5c31)C(=O)N[C@H]4O [UCN-01] | 3.15 | 48.30 | -0.80 | 52.44 |  |
| Oc1ncc(N(CCCl)CCCl)c(O)n1 [Uracil mustard] |  |  |  |  | Plate 1 (% conversion): 47.47%; Plate 1 (% inhibition): 4.95%; Plate 1-duplicate (% conversion): 46.70%; Plate 1-duplicate (% inhibition): 10.76% |
| CC(=O)OC[C@H]1O[C@@H](n2ccc(=O)[nH]c2=O)[C@H](OC(C)=O)[C@@H]1OC(C)=O [Uridine triacetate] | 4.05 | 47.88 | 7.04 | 48.55 |  |
| N#Cc1ccc(COC[C@H]2O[C@@H](n3c(NCc4ccc(Cl)c(Cl)c4)nc4c(N)ncnc43)[C@H](O)[C@@H]2O)cc1 [VER 155008] | 10.19 | 45.05 | 7.21 | 48.47 |  |
| CCCC(CCC)C(=O)O [Valproic acid] | 16.50 | 42.13 | 5.73 | 49.20 |  |
| CCCCC(=O)OCC(=O)[C@]1(O)Cc2c(O)c3c(c(O)c2[C@@H](O[C@H]2C[C@H](NC(=O)C(F)(F)F)[C@H](O)[C@H](C)O2)C1)C(=O)c1c(OC)cccc1C3=O [Valrubicin] | -2.24 | 50.79 | -16.67 | 60.31 |  |
| COc1cc2c(Nc3ccc(Br)cc3F)ncnc2cc1OCC1CCN(C)CC1 [Vandetanib] | -0.26 | 49.87 | 1.85 | 51.12 |  |
| CCc1c(C(=O)C(N)=O)c2c(OCC(=O)O)cccc2n1Cc1ccccc1 [Varespladib] | 9.84 | 45.21 | 8.14 | 48.01 |  |
| Clc1ccc(Nc2nnc(Cc3ccncc3)c3ccccc23)cc1 [Vatalanib] | 7.55 | 46.26 | 6.67 | 48.73 |  |
| CCCS(=O)(=O)Nc1ccc(F)c(C(=O)c2c[nH]c3ncc(-c4ccc(Cl)cc4)cc23)c1F [Vemurafenib, reference compound] |  | 12.12 |  | 12.00 | IC50 [1]: 12.9 ± 1.6 µM; remaining activity at 20 µM (20 μM fixed inhibitor concentration): ~20%; Hill coefficient of AspH inhibition curves (dose-response curves of SPE-MS AspH inhibition assay): < -2.0; IC50 [7]: 16.9 ± 4.4 µM; IC50 [8]: 10.5 ± 1.9 µM; IC50 [9]: 15.1 ± 0.2 µM |
| CC[C@]1(O)C[C@@H]2CN(CCc3c([nH]c4ccccc34)[C@@](C(=O)OC)(c3cc4c(cc3OC)N(C)[C@H]3[C@@](O)(C(=O)OC)[C@H](OC(C)=O)[C@]5(CC)C=CCN6CC[C@]43[C@@H]65)C2)C1 [Vinblastine sulfate] | -22.64 | 60.21 | -30.80 | 67.31 |  |
| CC[C@]1(O)C[C@H]2CN(CCc3c([nH]c4ccccc34)[C@@](C(=O)OC)(c3cc4c(cc3OC)N(C=O)[C@H]3[C@@](O)(C(=O)OC)[C@H](OC(C)=O)[C@]5(CC)C=CCN6CC[C@]43[C@@H]65)C2)C1.O=S(=O)(O)O [Vincristine Sulfate (Oncovin)] | 7.89 | 46.11 | 3.90 | 50.11 |  |
| CCC1=C[C@@H]2CN(C1)Cc1c([nH]c3ccccc13)[C@@](C(=O)OC)(c1cc3c(cc1OC)N(C)[C@H]1[C@@](O)(C(=O)OC)[C@H](OC(C)=O)[C@]4(CC)C=CCN5CC[C@]31[C@@H]54)C2 [Vinorelbine tartrate] | 35.58 | 33.32 | 36.10 | 34.14 |  |
| CS(=O)(=O)c1ccc(C(=O)Nc2ccc(Cl)c(-c3ccccn3)c2)c(Cl)c1 [Vismodegib] | 10.42 | 44.94 | 2.79 | 50.66 |  |

| Compound | Plate 1 (% inhibition) [3] [%] | Plate 1 (% conversion) [4] [%] | Plate 1-duplicate (% inhibition) [5] [%] | Plate 1-duplicate (% conversion) [6] [%] | also measured |
| --- | --- | --- | --- | --- | --- |
| O=C(CCCCCCC(=O)Nc1ccccc1)NO [Vorinostat] | 3.50 | 48.13 | 7.67 | 48.24 |  |
| Oc1nc(-c2ccc(C(F)(F)F)cc2)nc2c1CSCC2 [XAV-939] | 0.04 | 49.73 | 0.58 | 51.75 |  |
| COc1cc2nccc(Oc3ccc(NC(=O)C4(C(=O)Nc5ccc(F)cc5)CC4)cc3)c2cc1OC [XL184_Cabozantinib] | 11.20 | 44.58 | -8.84 | 56.43 |  |
| COc1cc2c(Oc3ccc(NC(=O)C4(C(=O)Nc5ccc(F)cc5)CC4)cc3F)ccnc2cc1OCCCN1CCOCC1 [XL880 (Foretinib)] | -64.58 | 79.57 | -62.78 | 83.18 |  |
| COc1ccc(Cl)c(Nc2nc3ccccc3nc2NS(=O)(=O)c2cccc(NC(=O)C(C)(C)N)c2)c1 [XL-147] | 3.96 | 47.92 | 7.32 | 48.41 |  |
| COCCn1c2c([n+](Cc3cnccn3)c1C)C(=O)c1ccccc1C2=O [YM155] | -27.18 | 62.30 | -43.09 | 73.41 |  |
| FC(F)c1nc2ccccc2n1-c1nc(N2CCOCC2)nc(N2CCOCC2)n1 [ZSTK474] | -1.18 | 50.29 | 1.69 | 51.20 |  |
| O=P(O)(O)C(O)(Cn1ccnc1)P(=O)(O)O [Zoledronic acid] | 19.60 | 40.70 | 13.13 | 45.53 |  |
| O=C(O)c1ccnc(C(=O)O)c1 [pyridine-2,4-dicarboxylic acid] |  |  |  |  | Plate 1 (% inhibition) (100 uM 2,4-PDCA controls, columns 23, 24, Plate 1): 101.14%; Plate 1-duplicate (% inhibition) (100 uM 2,4-PDCA controls, columns 23, 24, Plate 1-duplicate): 99.94% |
| AT 101 | 102.80 | 2.28 | 99.60 | 2.64 |  |
| AZ 3146 | -12.15 | 55.36 | 4.56 |  |  |
| AZD4547 | -11.19 | 54.92 | -5.75 | 54.89 |  |
| Bleomycin sulfate | 98.37 | 4.32 | 96.60 | 4.13 |  |
| KX2-391 | 2.59 | 48.55 | 1.17 | 51.46 |  |
| VX-11e |  |  |  |  | Plate 1 (% conversion): 33.84%; Plate 1 (% inhibition): 34.46%; Plate 1-duplicate (% conversion): 36.75%; Plate 1-duplicate (% inhibition): 30.84% |
